Some test systems named below: A549 NSCLC; HOP-92 NSCLC; HCT-116 colon; NCI-H226 lung; ACHN renal; COLO 205 colon; IGROV1 ovarian.
What all share (assay): inhibition of tumour cell growth, NCI panel, 48 h

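1) Cells in 96-well plates. 2) Compound, 48 h, 5 concentrations. 3) Linear interpolation between surrounding doses. 4) Unreached endpoint = highest concentration. Abbreviation: GI50, concentration required for 50% inhibition of growth. TGI: total growth inhibition.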 Some results are limits rather than exact numbers.

Regarding `CCOC(=O)/C=C/CC(C)(C)CCOC(C)=O`, the TGI with A549 NSCLC, in the experiment with HOP-92 NSCLC, with HCT-116 colon, in the experiment with NCI-H226 lung, in the experiment on ACHN renal and with COLO 205 colon was more than 10 µM each time. In the experiment with IGROV1 ovarian, the TGI is more than 10 µM.

With `O=C(Nc1ccc(F)cc1)Nc1ccc(Cl)c([N+](=O)[O-])c1`, the GI50 in the experiment with A549 NSCLC was 3.09 µM; with HOP-92 NSCLC it was 2.03 µM; in the experiment on HCT-116 colon, 3.07 µM; in the experiment with NCI-H226 lung, 2.28 µM; in the experiment with ACHN renal, 2.96 µM; in the experiment with COLO 205 colon, 2.48 µM. The GI50 in the experiment on IGROV1 ovarian is 4.77 µM. Moreover, the TGI worked out at 16.3 µM in the experiment on A549 NSCLC; 6.12 µM in the experiment on HOP-92 NSCLC; 11.8 µM in the experiment with HCT-116 colon; 9.3 µM in the experiment on NCI-H226 lung; 11 µM in the experiment with ACHN renal; 6.31 µM with COLO 205 colon. Also, the TGI with IGROV1 ovarian amounted to 18.6 µM.

For `CC1CCc2nc[nH]c(=O)c21` (stereo unspecified), the GI50 in the experiment on A549 NSCLC, in the experiment on HOP-92 NSCLC, in the experiment on HCT-116 colon, with NCI-H226 lung, with ACHN renal and in the experiment on COLO 205 colon was more than 100 µM in each case. For the same molecule, the GI50 with IGROV1 ovarian was more than 100 µM. Besides, the TGI in the experiment with A549 NSCLC, in the experiment with HOP-92 NSCLC, in the experiment with HCT-116 colon, with NCI-H226 lung, in the experiment with ACHN renal and in the experiment on COLO 205 colon was more than 100 µM each time. In the experiment with IGROV1 ovarian, this molecule had a TGI of more than 100 µM.

`COC1/C=C/OC2(C)Oc3c(C)c(O)c4c(O)c(c(/C=N/Nc5ccc([N+](=O)[O-])cc5[N+](=O)[O-])c(O)c4c3C2=O)NC(=O)C(C)=C/C=C/C(C)C(O)C(C)C(O)C(C)C(OC(C)=O)C1C` (stereo unspecified): the GI50 in the experiment on A549 NSCLC is 8.01 µM; in the experiment on HOP-92 NSCLC it was 0.885 µM; in the experiment on HCT-116 colon, 0.955 µM; in the experiment on NCI-H226 lung it was 1.35 µM; in the experiment on ACHN renal, 3.56 µM; in the experiment on COLO 205 colon, 2.8 µM. Besides, the GI50 in the experiment with IGROV1 ovarian is 1.87 µM. Besides, the TGI in the experiment with A549 NSCLC was found to be 17.3 µM; in the experiment on HOP-92 NSCLC it was 2.04 µM; in the experiment with HCT-116 colon it was 1.9 µM; in the experiment on NCI-H226 lung it was 3.89 µM; in the experiment on ACHN renal it was 11.4 µM; in the experiment with COLO 205 colon it was 10.5 µM. This molecule also had a TGI in the experiment on IGROV1 ovarian of more than 50 µM.

Consider `CC(C)=CCC\C(C)=C/C=C/C(C)=C\C=C\C(C)=C/C=C/C=C(C)\C=C\C=C(C)/C=C/C=C(/C)CCC=C(C)C`, for which the TGI in the experiment on A549 NSCLC, in the experiment on HOP-92 NSCLC, with HCT-116 colon, in the experiment on NCI-H226 lung, in the experiment with ACHN renal and with COLO 205 colon was more than 100 µM in each case. Besides, in the experiment with IGROV1 ovarian, the TGI is more than 100 µM.

`C=C(C)C(OC)C(O)CC1(C)CC(O)CC(C)(C2CCC3OC(C4(C)CCC(Br)C(C)(C)O4)CCC3(C)O2)O1` (stereo unspecified): the GI50 was 21 µM in the experiment with A549 NSCLC; 15.8 µM in the experiment with HOP-92 NSCLC; 20.6 µM in the experiment with HCT-116 colon; 18.8 µM in the experiment on NCI-H226 lung; 26.4 µM in the experiment on ACHN renal; 21.7 µM in the experiment with COLO 205 colon. The GI50 with IGROV1 ovarian is 24 µM. Besides, the TGI was more than 58 µM with A549 NSCLC; 34 µM in the experiment with HOP-92 NSCLC; 51.7 µM in the experiment on HCT-116 colon; 41.2 µM with NCI-H226 lung; more than 57.4 µM in the experiment on ACHN renal; 45.5 µM in the experiment with COLO 205 colon. This molecule also had a TGI with IGROV1 ovarian of more than 57.1 µM.

Consider `COc1cc2c(cc1OCCCCN1CCN(CC(=O)Nc3ccc(Cl)cc3C(=O)c3ccccc3Cl)CC1)N=CC1CCCN1C2=O` (stereo unspecified), for which the GI50 was 0.0982 µM with HOP-92 NSCLC; 0.225 µM in the experiment with HCT-116 colon; 0.483 µM with NCI-H226 lung; 0.431 µM in the experiment with ACHN renal; 0.175 µM in the experiment on COLO 205 colon; 0.229 µM in the experiment on IGROV1 ovarian. Besides, the TGI in the experiment with HOP-92 NSCLC was 0.298 µM; with HCT-116 colon, 0.664 µM; in the experiment on NCI-H226 lung, 1.44 µM; in the experiment on ACHN renal it was 1.01 µM; in the experiment on COLO 205 colon it was 0.335 µM; in the experiment on IGROV1 ovarian, 0.519 µM.

For the molecule `C=CCO[C@H]1CO[C@H]2[C@@H]1OC[C@@H]2Oc1ccc(Nc2ccnc(Nc3ccc(O[C@H]4CO[C@H]5[C@@H]4OC[C@@H]5OCC=C)c(Cl)c3)n2)cc1Cl`, the GI50 was 1.84 µM in the experiment on A549 NSCLC; 1.66 µM in the experiment on HOP-92 NSCLC; 1.82 µM with HCT-116 colon; 7.46 µM with NCI-H226 lung; 1.77 µM in the experiment on ACHN renal; 1.6 µM in the experiment with COLO 205 colon. Moreover, the GI50 with IGROV1 ovarian is 1.79 µM. Moreover, the TGI was found to be 3.95 µM with A549 NSCLC; 3.3 µM in the experiment with HOP-92 NSCLC; 3.44 µM in the experiment on HCT-116 colon; 72.3 µM in the experiment on NCI-H226 lung; 3.31 µM in the experiment on ACHN renal; 4.06 µM in the experiment on COLO 205 colon. In the experiment with IGROV1 ovarian, this molecule displayed a TGI of 3.54 µM.

On to `Cc1ccc(Cl)c2c(N=Nc3ccccc3[N+](=O)[O-])c(O)[nH]c12`, for which the TGI with A549 NSCLC, in the experiment with HOP-92 NSCLC, in the experiment with HCT-116 colon, in the experiment on NCI-H226 lung, in the experiment with ACHN renal and in the experiment on COLO 205 colon was more than 100 µM in each case. The molecule further came in with a TGI in the experiment on IGROV1 ovarian of more than 100 µM.

As to `NS(=O)(=O)OC[C@@H]1C[C@@H](n2ccc3c(NC4CCc5ccccc54)ncnc32)C[C@@H]1O` (stereo partly specified), the GI50 in the experiment on A549 NSCLC is 0.797 µM; in the experiment with HCT-116 colon, 0.103 µM; in the experiment with NCI-H226 lung, 0.362 µM; in the experiment on ACHN renal, 0.332 µM; in the experiment on COLO 205 colon, 0.524 µM; in the experiment on IGROV1 ovarian, 7.83 µM. Moreover, the TGI in the experiment with A549 NSCLC was 47.7 µM; with HCT-116 colon, 5.46 µM; with ACHN renal, 1.8 µM; with COLO 205 colon it was more than 51.2 µM; in the experiment on IGROV1 ovarian, more than 100 µM.

On to `CCN1CCN(Cc2ccc(NC(=O)c3cccc(C#Cc4cccc5[nH]nc(N)c45)c3)cc2C(F)(F)F)CC1`, for which the GI50 was 1.13 µM in the experiment on A549 NSCLC; 0.35 µM with HOP-92 NSCLC; 0.18 µM in the experiment on ACHN renal; 0.185 µM in the experiment with COLO 205 colon; 0.0681 µM in the experiment with IGROV1 ovarian. The TGI with A549 NSCLC was found to be 2.48 µM; in the experiment with HOP-92 NSCLC, 1.89 µM; in the experiment with ACHN renal, 0.933 µM; in the experiment on COLO 205 colon it was 1.28 µM; in the experiment on IGROV1 ovarian, 0.717 µM.

As for `Cc1ccc([N+](=O)[O-])cc1NC1=NCCO1`, the TGI in the experiment with A549 NSCLC, in the experiment with HCT-116 colon, with NCI-H226 lung, in the experiment on ACHN renal, with COLO 205 colon and in the experiment on IGROV1 ovarian was more than 100 µM throughout.

Take `CN1CCN(C2=NCCO2)CC1`: the TGI in the experiment on A549 NSCLC, in the experiment with HCT-116 colon, in the experiment on NCI-H226 lung, in the experiment on ACHN renal, in the experiment with COLO 205 colon and with IGROV1 ovarian was more than 100 µM each time.

As to `COc1cnc2c(c1)C(=O)c1c-2n(CCCN2CCOCC2)c(=O)c2cc(F)ccc12`, the GI50 in the experiment with HOP-92 NSCLC is 0.858 µM; with NCI-H226 lung, 0.206 µM; in the experiment on ACHN renal, 0.177 µM; in the experiment on IGROV1 ovarian, 0.354 µM. In addition, the TGI with HOP-92 NSCLC is 6.86 µM; with NCI-H226 lung it was 1.14 µM; with ACHN renal, 0.6 µM; with IGROV1 ovarian, more than 100 µM.

For `Cc1cc(-c2nc(C(=O)Nc3cc4oc(N5CCOCC5)nc4nc3N3CC[C@@H](O)C3)co2)ccn1`, the GI50 in the experiment on A549 NSCLC is 28.9 µM; with HCT-116 colon, 30.1 µM; in the experiment with NCI-H226 lung, more than 100 µM; with ACHN renal it was 17.9 µM; in the experiment on COLO 205 colon it was 37.2 µM; in the experiment on IGROV1 ovarian, 12.7 µM. Moreover, the TGI was more than 100 µM with A549 NSCLC; more than 100 µM in the experiment with HCT-116 colon; more than 100 µM in the experiment with NCI-H226 lung; 93.7 µM in the experiment with ACHN renal; more than 100 µM in the experiment on COLO 205 colon; 72.7 µM in the experiment on IGROV1 ovarian.

In the case of `COc1ccc2c(c1)sc1nc(-c3ccccc3)c(-c3cccc4ccccc34)n12`, the GI50 with A549 NSCLC was 0.816 µM; in the experiment with HCT-116 colon it was 0.615 µM; in the experiment with NCI-H226 lung it was 0.604 µM; with ACHN renal, 0.76 µM; in the experiment on COLO 205 colon, 0.292 µM; in the experiment with IGROV1 ovarian it was 2.07 µM. The TGI was more than 100 µM in the experiment with A549 NSCLC; more than 100 µM with HCT-116 colon; 5.28 µM with NCI-H226 lung; more than 100 µM in the experiment on ACHN renal; 0.855 µM with COLO 205 colon; more than 100 µM with IGROV1 ovarian.

In the case of `CC(=O)OC1OC([C@@H]2c3cccc(O)c3C(=O)c3c(O)cc(C)cc32)C(O)C(O)C1O` (stereo partly specified), the GI50 was 0.109 µM in the experiment with A549 NSCLC; 0.0233 µM in the experiment on HOP-92 NSCLC; 0.108 µM with HCT-116 colon; 0.012 µM with NCI-H226 lung; 0.0319 µM in the experiment with ACHN renal; 0.0429 µM with COLO 205 colon. Further, the TGI in the experiment on A549 NSCLC turned out to be 1.94 µM; with HOP-92 NSCLC, 0.0717 µM; with HCT-116 colon it was 1.2 µM; with NCI-H226 lung, 0.0806 µM; with ACHN renal it was 0.282 µM; with COLO 205 colon, 2.68 µM.

`CO/C(=N\N=C\c1ccc(C(F)(F)F)cc1)c1ccncc1`: the TGI in the experiment on A549 NSCLC, in the experiment with HOP-92 NSCLC, with HCT-116 colon, in the experiment on NCI-H226 lung, in the experiment with ACHN renal and with COLO 205 colon was more than 10 µM in each case.

Source of the values: PubChem BioAssay (NCI).
